Experimental data: patent publication US10414759B2, “Phenylthiazoles and uses thereof” (Purdue Research Foundation, priority 2017, dated 2019)
In brackets after ≈: the same amount, converted by molar mass. Values belong to the molecule of their own block, whether it stands above or below them.

Columns and labels:
[1] = test system: MRSA (2658 RCMB); test: MIC against MRSA (2658 RCMB), broth dilution; type: cell-based, Staphylococcus aureus; settings: Staphylococcus aureus; Table 7; initial screening, MRSA (2658 RCMB); read-out: minimum inhibitory concentration (MIC)
Method: (§1) Bacteria were cultured in cation-adjusted Mueller Hinton broth in a 96-well plate. Compounds, using triplicate samples, were added to the plate and serially diluted. […] Plates were visually inspected and the MIC was categorized as the concentration at which no visible growth of bacteria was observed. The average of triplicate MIC determinations is reported.
(§2) A bacterial solution equivalent to 0.5 McFarland standard was prepared and diluted in cation-adjusted Mueller-Hinton broth (CAMHB) to achieve a bacterial concentration of about 5×10^5 CFU/mL and seeded in 96-well plates. Enterococcus faecium was diluted in brain heart infusion broth. Enterococcus faecalis, Streptococcus pneumonia and Listeria monocytogenes were diluted in tryptone soya broth (TSB).

[2] = test system: human colorectal (Caco-2) cell; test: In vitro cytotoxicity against Caco-2 cells (MTS); type: cell-based; settings: at 32 μg/mL
Method: Tested compounds were assayed (at concentrations of 16, 32, and 64 μg/mL) against a human colorectal (Caco-2) cell to determine the potential toxic effect to mammalian cells in vitro. Briefly, cells were cultured in Dulbecco's Modified Eagle Medium (DMEM) supplemented with 20% fetal bovine serum (FBS), non-essential amino acids (1×), and penicillin-streptomycin at 37° C. with CO2 (5%). Control cells received DMSO alone at a concentration equal to that in drug-treated cell samples. The cells were incubated with the compounds (in triplicate) in a 96-well plate at 37° C. with CO2 (5%) for two hours. The assay reagent MTS 3-(4,5-dimethylthiazol-2-yl)-5-(3-carboxymethoxyphenyl)-2-(4-sulfophenyl)-2H-tetrazolium) (Promega, Madison, Wis., USA) was subsequently added and the plate was incubated for four hours. Absorbance readings (at OD490) were taken using a kinetic microplate reader (Molecular Devices, Sunnyvale, Calif., USA). The quantity of viable cells after treatment with each compound was expressed as a percentage of the viability of DMSO-treated control cells (average of triplicate wells±standard deviation). The toxicity data was analyzed via a two-way ANOVA, with post hoc Sidak's multiple comparisons test (P<0.05), utilizing GraphPad Prism 6.0 (GraphPad Software, La Jolla, Calif.).

[3] = test system: Enterococcus faecium ATCC 700221 (VRE); test: MIC/MBC Gram-positive pathogens (Table 9); type: cell-based; settings: Table 9; Enterococcus faecium ATCC 700221 (VRE); read-out: MIC
Method: (§3) The minimum inhibitory concentration (MIC) of tested compounds and control antibiotics were determined using the broth microdilution method in accordance with the recommendations contained in the Clinical and Laboratory Standards Institute guidelines, against methicillin-sensitive (ATCC 6538 and NRS107), methicillin-resistant (MRSA), and vancomycin-resistant (VRSA) Staphylococcus aureus, Staphylococcus epidermidis, Enterococcus faecalis, E. faecium, Listeria monocytogenes, and Streptococcus pneumoniae clinical isolates. A bacterial solution equivalent to 0.5 McFarland standard was prepared and diluted in cation-adjusted Mueller-Hinton broth (CAMHB) to achieve a bacterial concentration of about 5×10^5 CFU/mL and seeded in 96-well plates. Enterococcus faecium was diluted in brain heart infusion broth. Enterococcus faecalis, Streptococcus pneumonia and Listeria monocytogenes were diluted in tryptone soya broth (TSB). Compounds and control drugs were added in the first row of 96-well plates and serially diluted (to achieve a concentration gradient ranging from 128 to 1 μg/mL). Plates were then incubated aerobically at 37° C. for at least 18 hours. The minimum bactericidal concentration (MBC) of the active compounds was tested by plating 5 μL from wells with no growth onto Tryptic soy agar (TSA) plates.

[4] = test system: S. aureus ATCC 6538; test: MIC/MBC S. aureus strains (Table 8); type: cell-based; settings: Staphylococcus aureus, ATCC6538
Method: as §2

[5] = test system: MRSA NRS386; test: MIC/MBC S. aureus strains (Table 8); type: cell-based; settings: Staphylococcus aureus
Method: as §2

[6] = test system: MRSA NRS385; test: MIC/MBC S. aureus strains (Table 8); type: cell-based; settings: Staphylococcus aureus
Method: as §2

[7] = test system: MRSA NRS384 (USA300); test: MIC/MBC S. aureus strains (Table 8); type: cell-based; settings: Staphylococcus aureus
Method: as §2

[8] = test system: MRSA NRS123 (USA400); test: MIC/MBC S. aureus strains (Table 8); type: cell-based; settings: Staphylococcus aureus
Method: as §2

[9] = test system: MRSA NRS119; test: MIC/MBC S. aureus strains (Table 8); type: cell-based; settings: Staphylococcus aureus
Method: as §2

[10] = test system: S. aureus NRS107; test: MIC/MBC S. aureus strains (Table 8); type: cell-based, Staphylococcus aureus; settings: Staphylococcus aureus; Table 8; S. aureus NRS107
Method: as §2

[11] = test system: MRSA (USA300); test: Time-kill assay; type: cell-based, Staphylococcus aureus
Method: Aliquots (100 μL) were taken from each sample after 2, 4, 6, 8, 10, 12, and 24 hours, serially diluted in phosphate-buffered saline, and transferred to Trypticase soy agar (TSA) (Becton, Dickinson and Company, Sparks, Md., USA) plates. Plates were incubated at 37° C. for at least 16 hours before counting viable CFU/mL to determine the time required to reduce the bacterial cell count by 3-log10.

[12] = test system: VRS10 (VRSA); test: MIC/MBC S. aureus strains (Table 8); type: cell-based; settings: Staphylococcus aureus, Table 8, VRS10 (VRSA); for MBC: read-out: MBC
Method: as §3

[13] = test system: VRS12 (VRSA); test: MIC/MBC S. aureus strains (Table 8); type: cell-based; settings: Staphylococcus aureus, Table 8, VRS12 (VRSA); for MBC: read-out: MBC
Method: as §3

[14] = test system: Methicillin-resistant Staphylococcus epidermidis NRS101; test: MIC/MBC Gram-positive pathogens (Table 9); type: cell-based
Method: as §2

[15] = test system: Enterococcus faecalis ATCC 51299 (VRE); test: MIC/MBC Gram-positive pathogens (Table 9); type: cell-based; settings: Table 9; Enterococcus faecalis ATCC 51299 (VRE)
Method: as §2

[16] = test system: Listeria monocytogenes ATCC 19111; test: MIC/MBC Gram-positive pathogens (Table 9); type: cell-based
Method: as §2

[17] = test system: Cephalosporin-resistant Streptococcus pneumoniae ATCC 51916; test: MIC/MBC Gram-positive pathogens (Table 9); type: cell-based; settings: ATCC51916
Method: as §2

[18] = test system: Methicillin-resistant Streptococcus pneumoniae ATCC 700677; test: MIC/MBC Gram-positive pathogens (Table 9); type: cell-based; settings: ATCC700677
Method: as §2

[19] = test system: NRS123 (MRSA USA400); test: MIC/MBC clinical isolate panel (Table 3); type: cell-based, S. aureus; settings: Staphylococcus aureus; Table 3; NRS123 (MRSA USA400)
Method: as §1, §2

[20] = test system: NRS384 (MRSA USA300); test: MIC/MBC clinical isolate panel (Table 3); type: cell-based, S. aureus; settings: Staphylococcus aureus; Table 3; NRS384 (MRSA USA300)
Method: as §1, §2

[21] = test system: NRS72 (MSSA); test: MIC/MBC clinical isolate panel (Table 3); type: cell-based, S. aureus; settings: Staphylococcus aureus, Table 3, NRS72 (MSSA)
Method: as §1, §2

[22] = test system: NRS382 (MRSA USA100); test: MIC/MBC clinical isolate panel (Table 3); type: cell-based, S. aureus; settings: Staphylococcus aureus, Table 3, NRS382 (MRSA USA100)
Method: as §1, §2

[23] = test system: NRS383 (MRSA USA200); test: MIC/MBC clinical isolate panel (Table 3); type: cell-based, S. aureus; settings: Staphylococcus aureus, Table 3, NRS383 (MRSA USA200)
Method: as §1, §2

[24] = test system: VRSA10; test: MIC/MBC clinical isolate panel (Table 3); type: cell-based, S. aureus; settings: Staphylococcus aureus, Table 3, VRSA10
Method: as §1, with “MRSA clinical isolates, and vancomycin-resistant Staphylococcus aureus (VRSA) strain were obtained through the Network of Antimicrobial Resistance in Staphylococcus aureus (NARSA) program. In addition, vancomycin-resistant Enterococcus faecium (VRE) strain was obtained from the ATCC. Bacteria” for “Bacteria”
as §3

[25] = test system: VRE ATCC 700221; test: MIC/MBC clinical isolate panel (Table 3); type: cell-based, Enterococcus faecium; settings: Enterococcus, Table 3, VRE ATCC 700221
Method: as §1, with “MRSA clinical isolates, and vancomycin-resistant Staphylococcus aureus (VRSA) strain were obtained through the Network of Antimicrobial Resistance in Staphylococcus aureus (NARSA) program. In addition, vancomycin-resistant Enterococcus faecium (VRE) strain was obtained from the ATCC. Bacteria” for “Bacteria”
as §3

[26] = ATCC19111, Table 9, Listeria monocytogenes ATCC 19111

- MIC [1]: 0.78 µg/mL (≈ 1.82 µM)
- MIC [3]: 8 µg/mL (≈ 18.7 µM)
- MIC [4]: 4 µg/mL (≈ 9.33 µM)
- MIC [5]: 4 µg/mL (≈ 9.33 µM)
- MIC [6]: 4 µg/mL (≈ 9.33 µM)
- MIC [7]: 4 µg/mL (≈ 9.33 µM)
- MIC [8]: 4 µg/mL (≈ 9.33 µM)
- MIC [9]: 4 µg/mL (≈ 9.33 µM)
- MIC [10]: 4 µg/mL (≈ 9.33 µM)
- MIC ([12]; read-out: MIC): 4 µg/mL (≈ 9.33 µM)
- MIC ([13]; read-out: MIC): 4 µg/mL (≈ 9.33 µM)
- MIC [14]: 64 µg/mL (≈ 149 µM)
- MIC [15]: 8 µg/mL (≈ 18.7 µM)
- MIC [16, 26]: 4 µg/mL (≈ 9.33 µM)
- MBC values relative to MIC values against L. monocytogenes ([16]; text b122): more than three-fold higher
- MIC [17]: 4 µg/mL (≈ 9.33 µM)
- MIC [18]: 4 µg/mL (≈ 9.33 µM)
Structure (SMILES): Cc1nc(-c2ccc(C(C)(C)C)cc2)sc1-c1ccnc(NC(=N)c2cccnc2)n1 [Compound 63, N-(4-(2-(4-(tert-Butyl)phenyl)-4-methylthiazol-5-yl)pyrimidin-2-yl) nicotinimidamide]
- tolerability to human colorectal cells, in words [2]: highly tolerable
- MBC [4]: 4 µg/mL (≈ 9.33 µM)
- MBC [5]: 4 µg/mL (≈ 9.33 µM)
- MBC [6]: 4 µg/mL (≈ 9.33 µM)
- MBC [7]: 4 µg/mL (≈ 9.33 µM)
- MBC [8]: 4 µg/mL (≈ 9.33 µM)
- MBC [9]: 4 µg/mL (≈ 9.33 µM)
- MBC [10]: 4 µg/mL (≈ 9.33 µM)
- bactericidal / bacteriostatic behaviour in time-kill assay, in words ([11]; MRSA, 3.0×MIC): bacteriostatic activity
- decrease in MRSA CFU ([11]; over 24 hours): 2.3 log
- MBC [12]: 4 µg/mL (≈ 9.33 µM)
- MBC [13]: 4 µg/mL (≈ 9.33 µM)
- MBC [14]: > 64 µg/mL
- MBC [16, 26]: 64 µg/mL (≈ 149 µM)
- MBC [17]: 8 µg/mL (≈ 18.7 µM)
- MBC [18]: 8 µg/mL (≈ 18.7 µM)

- MIC ([21]; read-out: MIC): 1 µg/mL (≈ 2.96 µM)
- MIC ([22]; read-out: MIC): 1 µg/mL (≈ 2.96 µM)
- MIC ([23]; read-out: MIC): 1 µg/mL (≈ 2.96 µM)
- MIC [7]: 1 µg/mL (≈ 2.96 µM)
- MIC [8]: 1 µg/mL (≈ 2.96 µM)
- MIC [9]: 32 µg/mL (≈ 94.9 µM)
- MIC ([24]; read-out: MIC): 1 µg/mL (≈ 2.96 µM)
- MIC ([25]; read-out: MIC): 1 µg/mL (≈ 2.96 µM)
Structure (SMILES): CC(=O)NC[C@H]1CN(c2ccc(N3CCOCC3)c(F)c2)C(=O)O1 [Linezolid, linezolid]
- MBC [19]: 16 µg/mL (≈ 47.4 µM)
- MBC [20]: 4 µg/mL (≈ 11.9 µM)
- MBC [21]: 2 µg/mL (≈ 5.93 µM)
- MBC [22]: 8 µg/mL (≈ 23.7 µM)
- MBC [23]: 32 µg/mL (≈ 94.9 µM)
- MBC [5]: 64 µg/mL (≈ 190 µM)
- MBC [9]: > 64 µg/mL
- MBC ([24]; read-out: MBC): 2 µg/mL (≈ 5.93 µM)
- MBC [12]: 64 µg/mL (≈ 190 µM)
- MBC [13]: 64 µg/mL (≈ 190 µM)
- MBC ([25]; read-out: MBC): 32 µg/mL (≈ 94.9 µM)
